Positions count from the first letter of the chain named. Where “and” joins values, the source holds several entries; their conditions need not be identical. Equal values may be shown once.
Assays:
[1] = target: T1, β2AR-Nterm-hTA1-F112^3.41W (CryoEM Construct) (Homo sapiens, UniProt Q96RJ0, F112W); assay: GloSensor cAMP accumulation assay, cryoEM construct; format: cell-based;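 note: cells transiently co-transfected with the receptor construct and GloSensor cAMP biosensor, luminescence read after 30 min compound exposure at room temperature in the dark as cAMP accumulation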;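 for Normalized Luminescence Counts (N=2): normalized to the maximum response of β-PEA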
T1 construct: FLAG (N); 10xHis (N); TEV protease site (N); expressed in transfected cells; host or cells: HEK293T

hTA1 C88/178S = target: T2, hTA1 C88/178S (Homo sapiens, UniProt Q96RJ0, C178S/C88S); assay: GloSensor cAMP accumulation assay, C88S/C178S double mutant; format: cell-based; conditions: for Normalized Luminescence Counts (N=2): log[Compound], single replicate values
T2 construct: expressed in transfected cells; host or cells: HEK293T
T2 sequence (Q96RJ0 1-339 C88S/C178S): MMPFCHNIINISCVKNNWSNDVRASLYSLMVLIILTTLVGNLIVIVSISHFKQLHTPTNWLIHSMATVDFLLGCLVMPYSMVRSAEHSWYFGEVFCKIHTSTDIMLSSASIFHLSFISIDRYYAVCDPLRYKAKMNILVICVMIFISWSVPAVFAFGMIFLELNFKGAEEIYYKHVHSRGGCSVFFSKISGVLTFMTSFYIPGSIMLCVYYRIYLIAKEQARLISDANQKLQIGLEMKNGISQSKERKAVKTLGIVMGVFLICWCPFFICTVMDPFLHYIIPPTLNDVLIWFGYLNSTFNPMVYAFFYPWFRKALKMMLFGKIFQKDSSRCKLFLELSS

hTA1 T271A = target: T3, hTA1 T271A (Homo sapiens, UniProt Q96RJ0, T271A); assay: GloSensor cAMP accumulation assay, T271A mutant; format: cell-based
T3 construct: expressed in transfected cells; host or cells: HEK293T
T3 sequence (Q96RJ0 1-339 T271A): T2 sequence (Q96RJ0 1-339 C88S/C178S) with S88C, S178C, T271A

hTA1 T194A = target: T4, hTA1 T194A (Homo sapiens, UniProt Q96RJ0, T194A); assay: GloSensor cAMP accumulation assay, T194A mutant
T4 sequence (Q96RJ0 1-339 T194A): T2 sequence (Q96RJ0 1-339 C88S/C178S) with S88C, S178C, T194A

hTA1 C5S = target: T5, hTA1 C5S (Homo sapiens, UniProt Q96RJ0, C5S); assay: GloSensor cAMP accumulation assay, C5S mutant; format: cell-based; conditions: for C5S - Normalized Luminescence Counts (N=2): log[Compound], single wells
T5 construct: expressed in transfected cells; host or cells: HEK293T
T5 sequence (Q96RJ0 1-339 C5S): T2 sequence (Q96RJ0 1-339 C88S/C178S) with C5S, S88C, S178C

[2] = Cryo EM Construct minus WT average
[3] = Cryo EM Construct, mean of each independent experiment (3 replicates)
[4] = C88S, C178S, each row is one independent experiment, 3 replicates

T1 sequence (Q96RJ0 with tags, fused parts or gaps F112W): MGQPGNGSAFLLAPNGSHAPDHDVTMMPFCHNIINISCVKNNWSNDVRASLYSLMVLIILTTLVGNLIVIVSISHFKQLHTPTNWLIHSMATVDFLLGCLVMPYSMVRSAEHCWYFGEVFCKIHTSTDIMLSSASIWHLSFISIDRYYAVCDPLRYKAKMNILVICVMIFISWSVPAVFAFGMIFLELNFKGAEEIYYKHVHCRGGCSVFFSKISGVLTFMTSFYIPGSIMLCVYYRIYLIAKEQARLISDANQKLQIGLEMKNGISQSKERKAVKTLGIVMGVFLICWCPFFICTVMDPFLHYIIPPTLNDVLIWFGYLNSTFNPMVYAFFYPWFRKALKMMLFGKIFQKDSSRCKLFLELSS

With `Cc1c(F)cccc1[C@H]1COC(N)=N1` [Ro5263397] the “ΔEmax values (each mutant value - WT average), Mean” value [1, 2] was 19.0137 and 21.294, the “ΔpEC50 values (each mutant value - WT average), Mean” value (from here on “ΔpEC50 values”) [1, 2] was -0.1667 and 0.1313 and the “Emax values, Mean” value [1, 3] was -0.1667 and 0.1313. For the same compound, the “pEC50 values, Mean” value [1, 3] was 8.664 and 8.962, the “Normalized Luminescence Counts (N=2)” value ([1]; CryoEM Construct, log[Compound], M = -5, single replicates) was 130.633 and 139.904 and 147.826 and 114.773 and the “Span ± SEM (Emax normalized to β-PEA)” value ([1]; CryoEM Construct, n=2) was 106.6 ± 2.69. For the same compound, the “pEC50 ± SEM” value ([1]; CryoEM Construct, n=2) was 8.82 ± 0.06, the EC50 ([1]; CryoEM Construct, n=2, read-out: EC50) was 1.5 nM and the “Span ± SEM (Emax normalized to β-PEA)” value (hTA1 C88/178S; C88/178S, n=2) was 98.55 ± 7.35. For the same compound, the “pEC50 ± SEM” value (hTA1 C88/178S; C88/178S, n=2) was 8.59 ± 0.09, the EC50 (hTA1 C88/178S; C88/178S, n=2, read-out: EC50) was 2.55 nM and the “pEC50 values, Mean” value (hTA1 C88/178S; [4]) was 8.403 and 8.782. The “ΔEmax values (each mutant value - WT average), Mean” value (hTA1 C88/178S; [4]) was 4.495 and 19.1933, the “ΔpEC50 values” value (hTA1 C88/178S; [4]) was -0.428 and -0.04873 and the “Normalized Luminescence Counts (N=2)” value (hTA1 C88/178S; C88S, C178S, M = -5) was 100.242 and 99.2245 and 97.2457 and 143.648 and 172.345 and 97.883. The “Normalized Luminescence Counts (N=2)” value (hTA1 C88/178S; C88S, C178S, M = -5.522) was 90.9136 and 85.0903 and 89.8394 and 123.862 and 148.33 and 92.2945, the “Normalized Luminescence Counts (N=2)” value (hTA1 C88/178S; C88S, C178S, M = -6) was 90.1221 and 88.8217 and 95.4931 and 103.622 and 111.174 and 99.9975 and the “Normalized Luminescence Counts (N=2)” value (hTA1 C88/178S; C88S, C178S, M = -6.522) was 99.5072 and 94.7581 and 94.2493 and 122.049 and 117.367 and 101.508. For the same compound, the “Normalized Luminescence Counts (N=2)” value (hTA1 C88/178S; C88S, C178S, M = -7) was 91.3094 and 97.4719 and 93.062 and 116.159 and 110.872 and 102.263, the “Normalized Luminescence Counts (N=2)” value (hTA1 C88/178S; C88S, C178S, M = -7.522) was 83.1115 and 82.2069 and 77.6274 and 88.2165 and 117.82 and 93.3518 and the “Normalized Luminescence Counts (N=2)” value (hTA1 C88/178S; C88S, C178S, M = -8) was 58.8572 and 57.8961 and 57.8396 and 93.8049 and 106.945 and 88.8206. The “Normalized Luminescence Counts (N=2)” value (hTA1 C88/178S; C88S, C178S, M = -8.522) was 53.4862 and 36.4686 and 47.8325 and 84.7426 and 92.7477 and 67.222, the “Normalized Luminescence Counts (N=2)” value (hTA1 C88/178S; C88S, C178S, M = -9) was 25.2178 and 28.61 and 25.7832 and 45.3213 and 51.816 and 46.9828 and the “Normalized Luminescence Counts (N=2)” value (hTA1 C88/178S; C88S, C178S, M = -9.522) was 8.822 and 11.8186 and 9.84 and 21.1551 and 21.4571 and 31.5768. The “Normalized Luminescence Counts (N=2)” value (hTA1 C88/178S; C88S, C178S, M = -10) was 5.826 and 5.4299 (2×) and 35.5038 (2×) and 37.3163, the “Normalized Luminescence Counts (N=2)” value (hTA1 C88/178S; C88S, C178S, M = -10.522) was 1.755 and 2.038 and 3.395 and 3.6345 and 2.124 and 3.483 and the “Normalized Luminescence Counts (N=2)” value (hTA1 C88/178S; C88S, C178S, M = -11) was 2.49 and 1.529 and 1.585 and 16.4728 and 32.9361 and 27.0456. For the same compound, the “Normalized Luminescence Counts (N=2)” value (hTA1 C88/178S; C88S, C178S, M = -11.522) was 0.5677 and 1.529 and 0.7373 and 0.9158 and 1.369 and 1.973, the “Normalized Luminescence Counts (N=2)” value (hTA1 C88/178S; C88S, C178S, M = -12) was 0.7939 and 1.472 and 1.1331 and 4.692 and 7.713 and 6.504 and the “Normalized Luminescence Counts (N=2)” value (hTA1 C88/178S; C88S, C178S, M = -12.522) was 1.698 and 0.6243 and 0.7373 and -0.4436 and 0.7648 and -1.803. For the same compound, the “Emax values, Mean” value (hTA1 C88/178S; C88S, C178S, normalized (β-PEA = 100), each row is one independent experiment, 3 replicates) was 91.1984 and 105.897, the “ΔpEC50 values” value (hTA1 T271A; T271A mutant minus WT average, Figure 5B) was -0.5707 and -0.4899 and the “pEC50 values, Mean” value (hTA1 T271A; T271A mutant, Figure 5B, each row one independent experiment (3 replicates)) was 8.26 and 8.341. The “Emax values, Mean” value (hTA1 T271A; T271A mutant, Figure 5B, β-PEA = 100, each row one independent experiment (3 replicates)) was 76.005 and 87.3949, the “Span ± SEM (Emax normalized to β-PEA)” value (hTA1 T271A; T271A, n=2) was 81.70 ± 5.69 and the “pEC50 ± SEM” value (hTA1 T271A; T271A, n=2) was 8.3 ± 0.07. The EC50 (hTA1 T271A; T271A, n=2, read-out: EC50) was 5 nM, the “ΔpEC50 values” value (hTA1 T194A; T149A (so in the source) minus WT average) was -1.583 and -1.53 and -1.429 and the “pEC50 values, Mean” value (hTA1 T194A; T149A (so in the source), single experiments (3 replicates each)) was 7.248 and 7.301 and 7.402. For the same compound, the “Emax values, Mean” value (hTA1 T194A; T149A (so in the source), single experiments (3 replicates each), β-PEA = 100) was 143.384 and 86.8999 and 99.8921, the EC50 (hTA1 T194A; T194A) was 56.4 nM and the “Span ± SEM (Emax normalized to β-PEA)” value (hTA1 T194A; T194A) was 110.06. For the same compound, the “pEC50 ± SEM” value (hTA1 T194A; T194A) was 7.32 ± 0.14, the “reduction in potency vs wild type” value (hTA1 T194A; T194A) was “over 30 fold” and the “Span ± SEM (Emax normalized to β-PEA)” value (hTA1 C5S; C5S, n=2) was 85.5 ± 2.16. The “pEC50 ± SEM” value (hTA1 C5S; C5S, n=2) was 8.41 ± 0.07, the EC50 (hTA1 C5S; C5S, n=2, read-out: EC50) was 3.89 nM and the “ΔpEC50 values” value (hTA1 C5S; hTA1 C5S minus WT average) was -0.4275 and -0.4158. For the same compound, the “pEC50 values, Mean” value (hTA1 C5S; hTA1 C5S, mean of 3 replicates, one line per independent experiment) was 8.404 and 8.415, the “Emax values, Mean” value (hTA1 C5S; hTA1 C5S, β-PEA = 100, mean of 3 replicates, one line per independent experiment) was 87.6591 and 83.3363 and the “C5S - Normalized Luminescence Counts (N=2)” value (hTA1 C5S; M = -5) was 85.0708 and 100.74 and 87.5995 and 113.126 and 96.6929 and 89.5813. The “C5S - Normalized Luminescence Counts (N=2)” value (hTA1 C5S; M = -5.522) was 97.1276 and 85.703 and 92.1378 and 95.6573 and 94.8978 and 70.801, the “C5S - Normalized Luminescence Counts (N=2)” value (hTA1 C5S; M = -6) was 93.0635 and 85.8836 and 79.9907 and 67.4868 and 91.9288 and 67.763 and the “C5S - Normalized Luminescence Counts (N=2)” value (hTA1 C5S; M = -6.522) was 88.5027 and 85.5675 and 89.6542 and 93.5169 and 82.6077 and 78.2579. The “C5S - Normalized Luminescence Counts (N=2)” value (hTA1 C5S; M = -7) was 87.2609 and 83.7612 and 87.2157 and 111.607 and 73.6318 and 82.4696, the “C5S - Normalized Luminescence Counts (N=2)” value (hTA1 C5S; M = -7.522) was 71.4335 and 67.6629 and 81.3002 and 85.1624 and 76.2555 and 81.6411 and the “C5S - Normalized Luminescence Counts (N=2)” value (hTA1 C5S; M = -8) was 61.928 and 52.9645 and 61.8152 and 50.2945 and 70.0415 and 59.7537. For the same compound, the “C5S - Normalized Luminescence Counts (N=2)” value (hTA1 C5S; M = -8.522) was 48.2456 and 39.1466 and 43.2332 and 39.9378 and 36.8998 and 46.1518, the “C5S - Normalized Luminescence Counts (N=2)” value (hTA1 C5S; M = -9) was 23.0031 and 19.2551 and 16.9296 and 21.986 and 33.2404 and 18.948 and the “C5S - Normalized Luminescence Counts (N=2)” value (hTA1 C5S; M = -9.522) was 10.2012 and 7.989 and 6.476 and 12.3887 and 12.803 and 8.1079.
